Assay results as given in patent US20150025012A1, “METHODS AND COMPOSITIONS FOR IDENTIFICATION, ASSESSMENT AND TREATMENT OF CANCERS ASSOCIATED WITH HEDGEHOG SIGNALING” (Infinity Pharmaceuticals, Inc., priority 2010, published 2015).
“Also recorded” adds a separate entry of the source.

Experiments:
Gli1 mRNA = Gli1 mRNA expression in tumor stroma (RT-PCR); format: in vivo, murine; details: animals receiving IPI-926 (40 mg/kg) compared to vehicle
Description: In each of these cases, the action of IPI-926 coincides with downregulation of mRNA for Gli1, an important molecule in the Hedgehog signaling pathway, in the tumor stroma of experimental animals receiving IPI-926 (FIG. 12A). The downregulation of Gli1 mRNA can be used as a functional readout for inhibition of Hedgehog signaling. Moreover, in these models, it appears to be the cancer cells that express the ligand of the Hedgehog signaling pathway (FIG. 12B). Thus, without being bound by theory, Applicants believe that the tumor cells express Hedgehog ligand which signals to a tumor associated stromal cell.
RNA for analysis was isolated from cell pellets or tumor tissue using the Ambion RNA 4-PCR isolation kit according to the manufacturer's guidance. Reverse transcription-PCR was performed for human GAPDH, Gli l and SHh and murine GAPDH, Gli1, PECAM and RGS5 using an ABI-7300 system with ABI primer/probes. Relative quantification of the expression data was obtained using the ΔΔCT method as described by Applied Biosystems.

[1] = system: subcutaneous L3.6pl tumor model; assay: Tumor perfusion by contrast enhanced high frequency ultrasound; format: in vivo, mice; details: IPI-926 orally 40 mg/kg for seven days, compared to vehicle
Protocol: The L3.6pl tumor cell line was injected subcutaneously and treatment with IPI-926 was initiated. IPI-926 or vehicle was administered orally at 40 mg/kg for seven consecutive days. On the eighth day, animals were subjected to ultrasound image capture and analysis using the Vevo 2100 high frequency ultrasound instrument (Visualsonics) in conjunction with contrast enhancement (microbubbles) during the imaging procedure. Contrast agent was administered by iv administration during the imaging procedure and quantified by measuring echogenic signal derived from the contrast agent over time.

Bx-PC3 tumors = assay: Growth of Bx-PC3 tumors in mice; format: in vivo; details: single agents and combination
Description: Bevacizumab, a monoclonal antibody, exerts its activity by neutralizing VEGF, a factor important of the proliferation and survival of endothelial cells. […] In the same study, the relative effect of these agents was explored by measuring the mRNA expression of PECAM-1, a marker of endothelial cells and RGS5, a marker of pericytes. […] The role of the vasculature and its supporting pericyte population in the mechanism of action of IPI-926 continues to be explored.
For in vivo studies, tumors were grown in male NCR-nu/nu mice by subcutaneous injection of 5×10^6 cells. Tumor growth was monitored using calipers. When tumors reached an approximate size of 200 mm^3, tumor bearing animals were randomized into treatment arms and administered agents or vehicles as described.

[2] = system: Basal Cell Carcinoma (BCC) lesion; assay: BCC lesion in a patient before and after treatment; format: in vivo, human; details: six months after treatment
SHh signaling = SHh signaling in pericytic C3H10T1/2 cell cultures (qRT-PCR); format: cell-based, Mouse; details: pericytic C3H10T1/2 cells, SHh plus IPI-926
Protocol: To test this, a model of pericyte cell differentiation, the C3H10T1/2 cells was evaluated. C3H10T1/2 cells were differentiated in vitro into pericytes. C3H10T1/2 cells are believed to be pluripotent mesenchymal cells, which can be induced to differentiate into multiple different cell lineages, including myoblasts, adipocytes, osteoblasts and pericytes (Taylor, et al. (1979) Cell 17(4):771-9). In this case, cells are cultured to confluence and then allowed to differentiate over the course of 5 additional days of culture. At this time, the cells are seen to express high levels of CD13, an established marker of pericytes.
We subsequently explored if SHh signaling was intact in these pericyte cultures. In a typical experiment, confluent C3H10T1/2 cells were allowed to differentiate into pericyte-like cells. After 5 days in culture, SHh with or without IPI-926 were added to the cells in the presence of normal serum. On day 8 of culture, cells were re-fed SHh with or without IPI-926 and shifter to low serum. qRT-PCR analysis was performed on day 9. SHh signaling was detected in these cells as measured by Gli1 mRNA upregulation; the SHh signaling was inhibited by IPI-926 (FIG. 28). Cells were treated on day 8; Gli1 mRNA levels were evaluated in control samples, after SHh addition, after SHh and IPI-926 and cells treated with IPI-926 alone as shown in FIG. 28. […]

tumor stroma = assay: Microvascular density (CD31 IHC) in tumor; format: in vivo; details: after treatment with IPI-926
[3] = system: human cell lines derived from patients with cancer; details: pancreatic cancer, medulloblastoma, lung cancer, multiple myeloma, leukemias, lymphomas; cited from earlier work
Hedgehog pathway = details: after single administration; cited from earlier work

## CC1=C2C[C@H]3[C@@H](CC[C@@H]4C[C@H](NS(C)(=O)=O)CC[C@@]43C)[C@@H]2CC[C@@]2(C1)O[C@@H]1C[C@H](C)CN[C@H]1[C@H]2C [IPI-926]
Gli1 mRNA
  Gli1 mRNA expression in tumor stroma: inhibition; also recorded: suppression; also recorded: downregulation
[1]
  time to reach peak contrast: decrease; also recorded: change
Bx-PC3 tumors
  activity on the growth of Bx-PC3 tumors: approximately the same single agent activity
[2]
  size and morphology of BCC lesion: dramatic reduction
SHh signaling
  SHh-induced Gli1 mRNA upregulation: inhibited
  SHh-induced downregulation of RGS5 mRNA: reversed
Tumor stroma
  microvascular density (MVD, CD31 IHC): increased
[3]
  in vitro growth of human cell lines: inhibit
Hedgehog pathway
  Hedgehog pathway inhibition in stromal cells: rapid and sustained Hedgehog pathway inhibition
